Test results: US20250230138A1, “COMPOUNDS HAVING A T-STRUCTURE FORMED BY AT LEAST FOUR CYCLES FOR USE IN THE TREATMENT OF CANCER AND OTHER INDICATIONS” (TheRas, Inc., priority 2022, published 2025)
Like-named read-outs stand apart in the source and are kept apart here.

What was measured:
pAKT in BT474 cells = assay: Cell-based pAKT HTRF assay in BT474 cells; settings: BT474 cells, 4 hr incubation, read-out: pAKT inhibition IC50 in BT474 cells
Outline: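 The HTRF signal (excitation 320 nm, emission 615 nm) came from d2/Eu Cryptate antibodies added to lysates and incubated 4–24 h at room temperature. Those lysates were taken from cells treated for 4 hr with compound, top concentration 3 μM, in 0.25% DMSO.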

[1] = target: Cys242 in human PIK3CA (157-299) (Homo sapiens (Human), UniProt P42336); assay: Covalent modification assay using MALDI-TOF MS; format: biochemical; settings: 4 h reaction time point
Chain of Cys242 in human PIK3CA (157-299) (P42336 157-299): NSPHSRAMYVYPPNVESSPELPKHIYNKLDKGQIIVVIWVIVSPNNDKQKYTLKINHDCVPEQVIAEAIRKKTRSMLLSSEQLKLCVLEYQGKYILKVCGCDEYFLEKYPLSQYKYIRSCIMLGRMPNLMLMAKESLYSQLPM
Outline: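 Covalent adduct formation was read by linear-mode MALDI-TOF with sinapinic acid matrix, reported as modified-protein peak height divided by total protein peak heights. Reactions held PIK3CA (157-299) at 1 or 3.33 μM in HEPES/NaCl/MgCl2 buffer, pH 7.3, sampled after 15 min to 4 h at room temperature.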

[2] = 3.33 μM protein target, 1:7.5 protein to compound ratio (compounds 1-852)
[3] = Homo sapiens, BT-474, Compounds 10-999
[4] = 1 μM protein target, 1:5 protein to compound ratio (compounds 853-1279)

Row | IC50 (pAKT in BT474 cells; Compounds 10-999) | IC50 (pAKT in BT474 cells; [3]) | IC50 (pAKT in BT474 cells; Compounds 1000-1279) | Compound | % of modification [1, 2] | % of modification [1, 4]
1 | < 100 nM |  |  | C=CC(=O)N1Cc2cc(-c3nc(-c4ccc5c(c4)NC(=O)C5)c4ccsc4c3-c3c(F)cc(F)cc3OCCOC)nn2C[C@H]1C [Compound 779] | A (percent of modification of PIK3CA protein ≥75%) | 
2 | < 100 nM |  |  | C=CC(=O)N1CCc2nc(-c3nc(-c4ccc5c(c4)C(O)CC5)c4ccsc4c3-c3c(F)cc(F)cc3OCCOC)sc2C1 (centres unmarked) [Compound 416] | A (percent of modification of PIK3CA protein ≥75%) | 
3 | 100 to 1000 nM |  |  | COC/C=C/C(=O)N1CCn2nc(-c3nc(-c4ccc5c(c4)CCNC5=O)c4ccsc4c3-c3ccc(F)cc3OC(C)C)cc2C1 [Compound 277] | A (percent of modification of PIK3CA protein ≥75%) | 
4 | < 100 nM |  |  | C=CC(=O)N1CCc2nc(-c3nc(-c4ccc5c(c4)CS(=O)(=O)C5)c4ccsc4c3-c3ccc(F)cc3OCCOC)sc2C1 [Compound 116] | A (percent of modification of PIK3CA protein ≥75%) | 
5 |  | < 100 nM |  | C=CC(=O)N1CCn2nc(-c3nc(-c4ccc5c(c4)CCNC5=O)c4ccsc4c3-c3ccc(F)cc3OC(C)C)cc2C1 [Compound 199, 6-[7-(4-fluoro-2-isopropoxy-phenyl)-6-(5-prop-2-enoyl-6,7-dihydro-4H-pyrazolo[1,5-a]pyrazin-2-yl)thieno[3,2-c]pyridin-4-yl]-3,4-dihydro-2H-isoquinolin-1-one] | A (percent of modification of PIK3CA protein ≥75%) | 
6 | 100 to 1000 nM |  |  | C=CC(=O)N1Cc2cc(-c3nc(-c4ccc5c(cnn5C)c4)c4ccsc4c3-c3c(F)cc(F)cc3OC[C@@H](C)O)nn2[C@@H](C)C1 [Compound 608] | D (percent of modification <25%) | 
7 | < 100 nM |  |  | C=CC(=O)N1Cc2cc(-c3nc(-c4ccc5cn(C)nc5c4)c4ccsc4c3-c3c(F)cc(F)cc3OCCOC)nn2[C@@H](C)C1 [Compound 742] | A (percent of modification of PIK3CA protein ≥75%) | 
8 | < 100 nM |  |  | C=CC(=O)N1CCn2nc(-c3nc(-c4cnc5cnn(C)c5c4)c4ccsc4c3-c3c(F)cc(F)cc3OCCO)cc2C1C (centres unmarked) [Compound 901] |  | A (percent of modification of PIK3CA protein ≥75%)
9 |  | 100 to 1000 nM |  | C=CC(=O)N1CCc2nc(-c3nc(-c4ccc5c(c4)CCNC5)c4ccsc4c3-c3ccc(F)cc3OC)sc2C1 [Compound 87, 1-[2-[7-(4-fluoro-2-methoxy-phenyl)-4-(1,2,3,4-tetrahydroisoquinolin-6-yl)thieno[3,2-c]pyridin-6-yl]-6,7-dihydro-4H-thiazolo[5,4-c]pyridin-5-yl]prop-2-en-1-one] | A (percent of modification of PIK3CA protein ≥75%) | 
10 |  | 100 to 1000 nM |  | C=CC(=O)N1Cc2cc(-c3nc(-c4ccc5c(c4)CCN(C)C5)c4ccsc4c3-c3c(F)cc(F)cc3OC(C)C)cnc2C[C@H]1C [Compound 476, 1-((7R)-3-(7-(2,4-difluoro-6-isopropoxyphenyl)-4-(2-methyl-1,2,3,4-tetrahydroisoquinolin-6-yl)thieno[3,2-c]pyridin-6-yl)-7-methyl-7,8-dihydro-1,6-naphthyridin-6(5H)-yl)prop-2-en-1-one] | A (percent of modification of PIK3CA protein ≥75%) | 
11 | 100 to 1000 nM |  |  | C=C(F)C(=O)N1CCn2nc(-c3nc(-c4ccc5c(c4)CCN(C)C5)c4ccsc4c3-c3ccc(F)cc3OCC)cc2C1 [Compound 305] | B (50%<percent of modification <75%) | 
12 |  |  | < 100 nM | C=CC(=O)N1CCn2nc(-c3nc(-c4ccnc(OCCN(C)C)c4)c4ccsc4c3-c3c(F)cc(F)cc3OCCOC)cc2C1C (centres unmarked) [Compound 1199] |  | A (percent of modification of PIK3CA protein ≥75%)
13 |  | 100 to 1000 nM |  | C=CC(=O)N1CC(n2cc(-c3nc(-c4ccc5c(c4)CCNC5)c4c(c3-c3ccc(F)cc3OC)CCC4)cn2)C1 [Compound 97, 1-[3-[4-[4-(4-fluoro-2-methoxy-phenyl)-1-(1,2,3,4-tetrahydroisoquinolin-6-yl)-6,7-dihydro-5H-cyclopenta[c]pyridin-3-yl]pyrazol-1-yl]azetidin-1-yl]prop-2-en-1-one] | A (percent of modification of PIK3CA protein ≥75%) | 
14 |  |  | 100 to 1000 nM | C=CC(=O)N1Cc2cc(-c3nc(C45CC(CNC(C)=O)(C4)C5)c4ccsc4c3-c3c(F)cc(F)cc3OCCOC)nn2CC1C (centres unmarked) [Compound 1246] |  | B (50%<percent of modification <75%)
15 | < 100 nM |  |  | C=CC(=O)N1CCn2nc(-c3nc(-c4cnn(C)c4)c4ccsc4c3-c3c(F)cc(F)cc3OCCO)cc2[C@@H]1C [Compound 640] | A (percent of modification of PIK3CA protein ≥75%) | 
16 | < 100 nM |  |  | C=CC(=O)N1Cc2cc(-c3nc(-c4ccc5cnn(C)c5c4)c4ccsc4c3-c3c(F)cc(F)cc3OC[C@@H](C)O)nn2C[C@H]1C [Compound 755] | A (percent of modification of PIK3CA protein ≥75%) | 
17 | < 100 nM |  |  | C=CC(=O)N1CCn2nc(-c3nc(-c4cnn(C)c4)c4ccsc4c3-c3ccc(F)cc3OCCOC)nc2C1 [Compound 191] | A (percent of modification of PIK3CA protein ≥75%) | 

Row | IC50 (pAKT in BT474 cells; Compounds 10-999) | IC50 (pAKT in BT474 cells; [3]) | IC50 (pAKT in BT474 cells; Compounds 1000-1279) | Compound | % of modification [1, 2] | % of modification [1, 4]
18 | 100 to 1000 nM |  |  | C=CC(=O)N1CCc2nc(-c3nc(-c4ccc(C(C)(C)O)nc4)c4ccsc4c3-c3c(F)cc(F)cc3OCCOC)sc2C1 [Compound 445] | A (percent of modification of PIK3CA protein ≥75%) | 
19 | < 100 nM |  |  | C=CC(=O)N1CCc2nc(-c3nc(-c4ccc5c(c4)C(N)CC5)c4ccsc4c3-c3ccc(F)cc3OCCOC)sc2C1 (centres unmarked) [Compound 162] | A (percent of modification of PIK3CA protein ≥75%) | 
20 |  |  | < 100 nM | C=CC(=O)N1CCn2nc(-c3nc(-c4ccc5c(c4)C(=O)NC5)c4ccsc4c3-c3c(F)cc(F)cc3OC)cc2C1C (centres unmarked) [Compound 1117] |  | A (percent of modification of PIK3CA protein ≥75%)
21 |  | 1000 to 3000 nM |  | C=CC(=O)N1CC(n2cc(-c3nc(-c4ccc5c(c4)CNC(=O)C5)c4ccsc4c3-c3cccnc3OC)cn2)C1 [Compound 84, 7-[7-(2-methoxy-3-pyridyl)-6-[1-(1-prop-2-enoylazetidin-3-yl)pyrazol-4-yl]thieno[3,2-c]pyridin-4-yl]-2,4-dihydro-1H-isoquinolin-3-one] | B (50%<percent of modification <75%) | 
22 | < 100 nM |  |  | C=CC(=O)N1Cc2cc(-c3nc(-c4ccc5oc(C)nc5c4)c4ccsc4c3-c3c(F)cc(F)cc3OCC(C)O)nn2C(C)C1 (centres unmarked) [Compound 683] | A (percent of modification of PIK3CA protein ≥75%) | 
23 | < 100 nM |  |  | C=CC(=O)N1Cc2cc(-c3nc(-c4cnc5cn(C)nc5c4)c4ccsc4c3-c3c(F)cc(F)cc3OCCOC)nn2C[C@H]1C [Compound 818] | A (percent of modification of PIK3CA protein ≥75%) | 
24 | < 100 nM |  |  | C=CC(=O)N1CC(n2cc(-c3nc(-c4ccc5c(c4)CCNC5)c4c(c3-c3ccc(F)cc3OCCOC)CCC4)ccc2=O)C1 [Compound 154] | A (percent of modification of PIK3CA protein ≥75%) | 
25 | < 100 nM |  |  | C=C(F)C(=O)N1CCn2nc(-c3nc(-c4ccc5c(c4)CCN(C(C)C)C5)c4ccsc4c3-c3ccc(F)cc3OC(C)C)cc2C1 [Compound 294] | A (percent of modification of PIK3CA protein ≥75%) | 
26 | < 100 nM |  |  | C=CC(=O)N1CCn2nc(-c3nc(-c4ccc(=O)n(C)c4)c4ccsc4c3-c3ccc(F)cc3OC(F)F)cc2C1 [Compound 223] | A (percent of modification of PIK3CA protein ≥75%) | 
27 |  |  | < 100 nM | C=CC(=O)N1CCn2nc(-c3nc(-c4cnc5c(c4)N(C)C(=O)C5)c4ccsc4c3-c3c(F)cc(F)cc3OCCOC)cc2C1C (centres unmarked) [Compound 1058] |  | A (percent of modification of PIK3CA protein ≥75%)
28 |  |  | < 100 nM | C=CC(=O)N1CCc2cc(-c3nc(-c4ccc5c(c4)CNC(=O)C5)c4ccsc4c3-c3c(F)cc(F)cc3OCCOC)nn2CC1 [Compound 1024] |  | A (percent of modification of PIK3CA protein ≥75%)
29 | < 100 nM |  |  | C=CC(=O)N1Cc2cc(-c3nc(-c4cnc(C)nc4)c4ccsc4c3-c3c(F)cc(F)cc3OCCOC)nn2C[C@H]1C [Compound 686] | A (percent of modification of PIK3CA protein ≥75%) | 
30 | < 100 nM |  |  | C=CC(=O)N1CCn2nc(-c3nc(-c4ccc5ncn(C)c5c4)c4ccsc4c3-c3c(F)cc(F)cc3OCCO)cc2C1C (centres unmarked) [Compound 773] | A (percent of modification of PIK3CA protein ≥75%) | 
31 |  |  | < 100 nM | C=CC(=O)N1CCn2nc(-c3nc(-c4ccc(C5(F)CN(C)C5)cc4)c4ccsc4c3-c3c(F)cc(F)cc3OCCOC)cc2C1C (centres unmarked) [Compound 1044] |  | A (percent of modification of PIK3CA protein ≥75%)
32 | 1000 to 3000 nM |  |  | C=CC(=O)N1Cc2cc(-c3nc(-c4cnnc(C)c4)c4ccsc4c3-c3c(F)cc(F)cc3OCCOC)nn2C[C@H]1C [Compound 633] | D (percent of modification <25%) | 
33 | < 100 nM |  |  | C=CC(=O)N1CCn2nc(-c3nc(-c4ccc(=O)n(CC(F)F)c4)c4ccsc4c3-c3c(F)cc(F)cc3OCCOC)cc2C1C (centres unmarked) [Compound 988] |  | A (percent of modification of PIK3CA protein ≥75%)
34 | 100 to 1000 nM |  |  | C=CC(=O)N1CCc2nc(-c3nc(-c4ccc(=O)n(C(F)F)c4)c4ccsc4c3-c3c(F)cc(F)cc3OC(C)C)sc2C1 [Compound 347] | A (percent of modification of PIK3CA protein ≥75%) | 
